In series [1] the test system is Thanatephorus cucumeris (Rhizoctonia solani). The experiment in a line: Thanatephorus cucumeris (Rhizoctonia solani) / liquid culture (foot rot, damping-off). Conditions: PDB, 24° C., 3-4 days after application, read-out: control of Thanatephorus cucumeris (inhibition of growth, photometric). It is filed as cell-based. The method, boiled down: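 Mycelial fragments in potato dextrose broth exposed to test compounds at 200 ppm (from DMSO solution), incubated at 24° C. Growth inhibition read photometrically 3-4 days after application.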

In the next series the test system is Pyrenophora teres. The experiment in a line: Pyrenophora teres / barley / leaf disc preventative (net blotch). Format: in vivo. The settings on record: foliar, barley leaf segments cv Hasso, inoculated two days after application, assessed 5-7 days after application, read-out: control of Pyrenophora teres (disease control compared to untreated). The method, boiled down: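 Barley cv Hasso leaf segments on agar sprayed with compound at 200 ppm, inoculated with spores two days later. Kept at 20 °C, 65% RH, 12/12 h light; disease control versus untreated scored 5-7 days after application.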

In series [2] the test system is Mycosphaerella graminicola (Septoria tritici). Put plainly: Mycosphaerella graminicola (Septoria tritici) / liquid culture (Septoria blotch). Format: cell-based. The settings on record: Zymoseptoria tritici, PDB, 24° C., 4-5 days after application, read-out: control of Mycosphaerella graminicola (inhibition of growth, photometric). A digest of the protocol: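 Cryo-stored conidia in potato dextrose broth were added to compound in DMSO at 200 ppm in microtiter plates. Plates were incubated at 24 °C and growth inhibition was measured photometrically 4–5 days after application.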

The test system of a further series is Plasmopara viticola. The experiment in a line: Plasmopara viticola / grape / leaf disc preventative. The settings on record: foliar, grape vine leaf disks, inoculated 1 day after application, assessed 6-8 days after application, read-out: control of Plasmopara viticola (percent disease control compared to untreated). It is filed as in vivo.
Series [3] has as its system Phaeosphaeria nodorum (Septoria nodorum). The experiment in a line: Phaeosphaeria nodorum (Septoria nodorum) / wheat / leaf disc preventative (glume blotch). Conditions: Parastagonospora nodorum, foliar, wheat leaf segments cv Kanzler, inoculated 2 days after application, assessed 5-7 days after application, read-out: control of Phaeosphaeria nodorum (percent disease control compared to untreated). Format: in vivo. The method, boiled down: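 Wheat leaf segments (cv Kanzler) on agar sprayed with compound at 200 ppm, inoculated with spores 2 days later. Incubated at 20° C., 75% relative humidity, 12/12 h light/dark; percent disease control versus untreated scored 5-7 days after application.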

Series [4] deals with Mycosphaerella arachidis (Cercospora arachidicola). Put plainly: Mycosphaerella arachidis (Cercospora arachidicola) / liquid culture (early leaf spot). Format: cell-based. Conditions: PDB, 24° C., 4-5 days after application, read-out: control of Mycosphaerella arachidis (inhibition of growth, photometric). On the procedure: Mycosphaerella Arachidis (Cercospora arachidicola)/Liquid Culture (Early Leaf Spot): Conidia of the fungus from cryogenic storage were directly mixed into nutrient broth (PDB potato dextrose broth). After placing a DMSO solution of test compound into a 96-well microtiter plate at an application rate of 200 ppm, the nutrient broth containing the fungal spores was added. The test plates are incubated at 24° C. and the inhibition of growth was determined photometrically 4-5 days after application.

The subject of series [5] is Botryotinia fuckeliana (Botrytis cinerea). Put plainly: Botryotinia fuckeliana (Botrytis cinerea) / liquid culture (gray mould). Format: cell-based. Conditions: Vogels broth, 24° C., 3-4 days after application, read-out: control of Botryotinia fuckeliana (inhibition of growth, photometric). A digest of the protocol:
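Botrytis cinerea conidia in Vogels broth were added to test compound applied from DMSO at 200 ppm. Incubation at 24 °C; growth inhibition read photometrically 3-4 days after application.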

Series [6] has as its system Puccinia recondita f. sp. Tritici. Put plainly: Puccinia recondita f. sp. tritici / wheat / leaf disc preventative (brown rust). Format: in vivo. The settings on record: foliar, wheat leaf segments cv Kanzler, inoculated 1 day after application, assessed 7-9 days after application, read-out: control of Puccinia recondita f. sp. Tritici (percent disease control compared to untreated). The method, boiled down: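 Leaf segments of wheat cv Kanzler on agar were sprayed with formulated compound at 200 ppm and inoculated with spores 1 day later. Incubation was at 19° C, 75% relative humidity and 12/12 h light/dark. Activity was scored 7-9 days after application as percent disease control versus untreated.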

The test system of another series is Gaeumannomyces graminis. Put plainly: Gaeumannomyces graminis / liquid culture (take-all of cereals). It is filed as cell-based. The settings on record: PDB, 24° C., 4-5 days after application, read-out: control of Gaeumannomyces graminis (inhibition of growth, photometric). The method, boiled down: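 Mycelial fragments in potato dextrose broth were exposed to compound from DMSO at 200 ppm in microtiter plates. Incubation at 24 °C; growth inhibition read photometrically 4-5 days after application.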

In series [7] the test system is Glomerella lagenarium (Colletotrichum lagenarium). Put plainly: Glomerella lagenarium (Colletotrichum lagenarium) / liquid culture (anthracnose). The settings on record: Colletotrichum orbiculare, PDB, 24° C., 3-4 days after application, read-out: control of Glomerella lagenarium (inhibition of growth, photometric). It is filed as cell-based. A digest of the protocol: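 Cryopreserved conidia suspended in potato dextrose broth were added to compound in DMSO applied at 200 ppm. Plates incubated at 24° C; growth inhibition read photometrically 3-4 days after application.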

For series [8], the system named is Monographella nivalis (Microdochium nivale). Put plainly: Monographella nivalis (Microdochium nivale) / liquid culture (foot rot cereals). Format: cell-based. Conditions: PDB, 24° C., 4-5 days after application, read-out: control of Monographella nivalis (inhibition of growth, photometric). The method, boiled down:
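Cryostored conidia in potato dextrose broth were added to test compound dispensed from DMSO at 200 ppm. Plates were kept at 24° C, and growth inhibition was read photometrically 4-5 days after application.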

A further series relates to Sclerotinia sclerotiorum. Put plainly: Sclerotinia sclerotiorum liquid culture (cottony rot / white mold). Format: cell-based. The settings on record: PDB, 24° C., 3-4 days after application, read-out: control of Sclerotinia sclerotiorum (inhibition of growth, photometric). As for the experimental part:
Sclerotinia sclerotiorum (Cottony Rot/White Mold): Mycelia fragments of a newly grown liquid culture of the fungus were directly mixed into nutrient broth (PDB potato dextrose broth). After placing a (DMSO) solution of test compound into a microtiter plate (96-well format) the nutrient broth containing the fungal material was added. The test plates are incubated at 24° C. and the inhibition of growth was determined photometrically 3-4 days after application.

Each structure is given as a SMILES string. A value given as a limit tells only on which side of the number the result lay.

With `CCn1c(-n2ncnc2N)nc2cncc(-c3cccc4ccccc34)c21` [Compound 40, 2-(1-ethyl-7-naphthalen-1-ylimidazo[4,5-c]pyridin-2-yl)-1,2,4-triazol-3-amine], the inhibition at 20 ppm in series [1] and in series [2] was at least 80% throughout. Besides, the pest or weed control at 200 ppm in the series on Pyrenophora teres and in the series on Plasmopara viticola was at least 80% throughout.

With `CCn1c(-n2ncnc2N)nc2cncc(-c3ccc(C)cc3C)c21` [Compound 45, 2-[7-(2,4-dimethylphenyl)-1-ethylimidazo[4,5-c]pyridin-2-yl]-1,2,4-triazol-3-amine], the pest or weed control at 200 ppm (in series [3]; in series [6]; in the series with Pyrenophora teres; in the series with Plasmopara viticola) was at least 80% in each case. Further, the inhibition at 20 ppm in series [4], in series [5], in series [1] and in series [2] was at least 80% in each case.

For `CCCn1c(-n2ncnc2N)nc2cncc(-c3ccc(Cl)cc3Cl)c21` [Compound 118, 2-[7-(2,4-dichlorophenyl)-1-propylimidazo[4,5-c]pyridin-2-yl]-1,2,4-triazol-3-amine], the pest or weed control at 200 ppm (in [3]; with Pyrenophora teres; with Plasmopara viticola) was at least 80% in each case. Besides, the inhibition at 20 ppm (in series [5]; in series [1]; with Gaeumannomyces graminis; in series [2]; in series [7]; in [8]) was at least 80% throughout.

The compound `CCn1c(-n2ncnc2N)nc2cncc(C(C)=NOC)c21` [Compound 133] had a melting point of 170 to 173 °C. Besides, the inhibition at 20 ppm in series [4] is at least 80%. In addition, in series [5], the inhibition at 20 ppm is at least 80%. For the same compound, in [1], the inhibition at 20 ppm is at least 80%. In addition, the inhibition at 20 ppm with Gaeumannomyces graminis was at least 80%. Moreover, the pest or weed control at 200 ppm in the series on Pyrenophora teres was at least 80%. Further, the inhibition at 20 ppm in series [2] is at least 80%. Moreover, the inhibition at 20 ppm in series [8] is at least 80%.

In the case of `CCn1c(-n2ncnc2N)nc2cncc(C(C)=NOC(C)(C)C)c21` [Compound 140], the melting point fell in the range of 171 to 175 °C. For the same compound, the inhibition at 20 ppm in series [4] is at least 80%. The inhibition at 20 ppm in [5] was at least 80%. Besides, in series [6], the pest or weed control at 200 ppm was at least 80%. Besides, the inhibition at 20 ppm in [1] is at least 80%. For the same compound, the inhibition at 20 ppm in the series with Gaeumannomyces graminis was at least 80%. Further, the pest or weed control at 200 ppm with Pyrenophora teres is at least 80%. In addition, in series [2], the inhibition at 20 ppm was at least 80%. In addition, in series [7], the inhibition at 20 ppm is at least 80%.

`CCn1c(-n2ncnc2N)nc2cncc(C(C)=NOCc3ccccc3Cl)c21` [Compound 144]: the pest or weed control at 200 ppm (in series [3]; in [6]; with Pyrenophora teres; with Plasmopara viticola) was at least 80% throughout. In addition, the inhibition at 20 ppm (in series [5]; in [1]; in the series on Sclerotinia sclerotiorum; in series [2]; in series [7]; in [8]) was at least 80% throughout.

On to `CCn1c(-n2ncnc2N)nc2cncc(C(C)=NOCc3ccccc3OC)c21` [Compound 146], for which the inhibition at 20 ppm in series [5], in series [1], in [2] and in series [7] was at least 80% in each case. Further, the pest or weed control at 200 ppm (in [6]; in the series with Pyrenophora teres; with Plasmopara viticola) was at least 80% each time.

Regarding `CCn1c(-n2ncnc2N)nc2cncc(/C(C)=N\OCC=C(C)C)c21` [Compound 156], the pest or weed control at 200 ppm (in series [3]; in [6]; in the series with Pyrenophora teres; with Plasmopara viticola) was at least 80% in each case. The inhibition at 20 ppm (in series [5]; in [1]; in the series with Sclerotinia sclerotiorum; in series [2]; in series [7]; in series [8]) was at least 80% throughout.

`CCn1c(-n2ncnc2N)nc2cncc(C(C)=NOCc3c(Cl)cccc3Cl)c21` [Compound 160]: the pest or weed control at 200 ppm (in [6]; in the series on Pyrenophora teres; in the series with Plasmopara viticola) was at least 80% throughout. Besides, the inhibition at 20 ppm in series [1] and in [2] was at least 80% each time.

With `CCn1c(-n2ncnc2N)nc2cncc(/C(C)=N\OCC(C)C)c21` [Compound 161], the inhibition at 20 ppm (in series [4]; in [5]; in [1]; with Sclerotinia sclerotiorum; in [2]; in series [7]) was at least 80% each time. Moreover, the pest or weed control at 200 ppm (in series [6]; in the series on Pyrenophora teres; with Plasmopara viticola) was at least 80% each time.

Regarding `CCn1c(-n2ncnc2N)nc2cncc(C(C)=NOCc3ccccc3)c21` [Compound 165], the pest or weed control at 200 ppm (in series [3]; in series [6]; in the series with Pyrenophora teres; in the series on Plasmopara viticola) was at least 80% throughout. For the same compound, the inhibition at 20 ppm (in series [5]; in series [1]; in the series with Sclerotinia sclerotiorum; in series [2]; in series [7]; in [8]) was at least 80% each time.

For `CCn1c(-n2ncnc2N)nc2cncc(/C(C)=N\OC(C)C)c21` [Compound 166], the inhibition at 20 ppm in [5], in series [1], in [2] and in [7] was at least 80% each time. The pest or weed control at 200 ppm (in series [6]; with Pyrenophora teres; in the series on Plasmopara viticola) was at least 80% each time.

Consider `CCn1c(-n2ncnc2N)nc2cncc(C(C)=NOCC(F)(F)F)c21` [Compound 169], for which the inhibition at 20 ppm in series [5], in series [1], in series [2] and in series [7] was at least 80% throughout. Moreover, the pest or weed control at 200 ppm (in [6]; in the series on Pyrenophora teres; in the series with Plasmopara viticola) was at least 80% in each case.

What is called inhibition is the relative decrease from the control value, in per cent. For orientation: melting point means the temperature, or range, at which the solid turns liquid.

These data come from US9512120B2, “Microbicidally active imidazopyridine derivatives” (Syngenta Participations AG, priority 2013, dated 2016).
